Source: patent US9890175B2, “Taxane compound, and preparation method and use thereof” (JIANGSU TASLY DIYI PHARMACEUTICAL CO., LTD., priority 2013, dated 2018)
Like-named read-outs stand apart in the source and are kept apart here.

How the values were obtained:
[1] = system: B16 melanoma; assay: MTT proliferation inhibition, B16; format: cell-based; conditions: B16, read-out: Proliferation inhibition rate, B16 Melanoma
Text: (§1) 1. Cytotoxicity Assay Using Human Tumor Cell Lines
(§2) Paclitaxel was used as the positive drug.

[2] = Caco-2 cell monolayer membrane transport assay (Papp and recovery); format: in vitro ADME; conditions: human, Caco-2, Caco-2, A-B
Text: Caco-2 Cell Monolayer Membrane Transport Assay
Human-derived colorectal adenocarcinoma cell line Caco-2 cell monolayer model was used to study the bidirectional transport of the target compounds from the apical (AP) side to the basolateral (BL) side and from BL side to AP side. HPLC was used for quantitative analysis to calculate transport parameters, apparent permeability coefficient (Papp) and the efflux ratio.

[3] = system: MCF-7 breast cancer cells; assay: MTT proliferation inhibition, MCF-7; format: cell-based; conditions: Homo sapiens, MCF7, read-out: Proliferation inhibition rate, MCF-7 Breast cancer
Text: as §1, §2

[4] = system: HT-29 colon cancer; assay: MTT proliferation inhibition, HT-29; format: cell-based; conditions: Homo sapiens, HT-29, read-out: Proliferation inhibition rate, HT29 Colon cancer
Text: as §1, §2

[5] = system: HL-60 leukemia; assay: MTT proliferation inhibition, HL-60; format: cell-based; conditions: Homo sapiens, HL-60, read-out: Proliferation inhibition rate, HL60 Leukemia
Text: as §1, §2

[6] = system: A375 melanoma; assay: MTT proliferation inhibition, A375; format: cell-based; conditions: Homo sapiens, A-375, read-out: Proliferation inhibition rate, A375 Melanoma
Text: as §1, §2

[7] = system: BGC-823 gastric cancer; assay: MTT proliferation inhibition, BGC-823; format: cell-based; conditions: Homo sapiens, BGC-823, read-out: Proliferation inhibition rate, BGC-823 Gastric cancer
Text: as §1, §2

[8] = system: A549 non-small cell lung cancer; assay: MTT proliferation inhibition, A549; format: cell-based; conditions: Homo sapiens, A549, read-out: Proliferation inhibition rate, A549 Non-small cell lung cancer
Text: as §1, §2

[9] = system: NCI-H460 non-small cell lung cancer; assay: MTT proliferation inhibition, NCI-H460; format: cell-based; conditions: Homo sapiens, NCI-H460, read-out: Proliferation inhibition rate, NCI-H460 Non-small cell lung cancer
Text: as §1, §2

[10] = system: MDA-MB-436 breast cancer cells; assay: MTT proliferation inhibition, MDA-MB-436; format: cell-based; conditions: Homo sapiens, MDA-MB-436, read-out: Proliferation inhibition rate, MDA-MB-436 Breast cancer
Text: as §1, §2

[11] = system: A2780 ovarian cancer; assay: MTT proliferation inhibition, A2780; format: cell-based; conditions: Homo sapiens, A2780, read-out: Proliferation inhibition rate, A2780 Ovarian cancer
Text: as §1, §2

[12] = system: LN-18; assay: MTT proliferation inhibition, LN-18; format: cell-based; conditions: Homo sapiens, LN-18, read-out: Proliferation inhibition rate, LN-18 Gastric canser
Text: as §1, §2

[13] = system: LNCaP prostate cancer; assay: MTT proliferation inhibition, LNCaP; format: cell-based; conditions: Homo sapiens, read-out: Proliferation inhibition rate, LNCaP Prostate cancer
Text: as §1, §2

[14] = system: Hela cervical cancer; assay: MTT proliferation inhibition, HeLa; format: cell-based; conditions: Homo sapiens, read-out: Proliferation inhibition rate, HeLa Uterin cancer
Text: as §1, §2

[15] = system: breast cancer cell line MCF-7; assay: IC50 on breast cancer cell line MCF-7; format: cell-based; conditions: Homo sapiens, MCF7, 72 h, read-out: MCF-7 (IC50, nM)
Experimental: From the activity evaluation data of the above-mentioned preliminary screen, it can be seen that the series of taxanes derivatives synthesized in the present invention have activity. Afterward, the compounds are investigated to examine their IC50 values on breast cancer cell line MCF-7. […] Experiments for each compound were independently repeated for three times and multiple holes were used in each experiment. The exposure time of drugs was 72 hours.

[16] = system: HCT 116 colon cancer; assay: MTT proliferation inhibition, HCT 116; format: cell-based; conditions: Homo sapiens, HCT-116, read-out: Proliferation inhibition rate, HCT 116 Colon cancer
Text: as §1, §2

[17] = system: Du145 prostate cancer; assay: MTT proliferation inhibition, Du145; format: cell-based; conditions: Homo sapiens, DU-145, read-out: Proliferation inhibition rate, DU145 Prostate cancer
Text: as §1, §2

[18] = system: K562 leukemia; assay: MTT proliferation inhibition, K562; format: cell-based; conditions: Homo sapiens, K562, read-out: Proliferation inhibition rate, K562 Leukemia
Text: as §1, §2

[19] = Mean, read-out: Recovery rate in mass, Mean
[20] = Sample-01, read-out: Papp A-B, Sample-01
[21] = Sample-01, read-out: Recovery rate in mass, Sample-01
[22] = Sample-02, read-out: Papp A-B, Sample-02
[23] = Sample-02, read-out: Recovery rate in mass, Sample-02

SMILES: CO[C@H]1C[C@H]2OC[C@@]2(OC(C)=O)[C@H]2[C@H](OC(=O)c3ccccc3)[C@]34OC(=O)O[C@H]3[C@H](OC(=O)[C@H](O)[C@@H](NC(=O)N(C)C)c3ccccc3)C(C)=C([C@@H](OC(=O)N(C)C)C(=O)[C@]12C)C4(C)C [PCMI-11]
- inhibition at 1 µM [1]: 72.6%
- Papp A→B ([2]; Mean, read-out: Papp A-B, Mean): 1.13 ×10⁻⁶ cm/s
- recovery [2, 19]: 79.9%
- Papp A→B [2, 20]: 1.24 ×10⁻⁶ cm/s
- recovery [2, 21]: 79.7%
- Papp A→B [2, 22]: 1.02 ×10⁻⁶ cm/s
- recovery [2, 23]: 80.2%
- inhibition at 1 µM [3]: 82.4%
- inhibition at 1 µM [4]: 85.9%
- inhibition at 1 µM [5]: 97.9%
- inhibition at 1 µM [6]: 92.4%
- inhibition at 1 µM [7]: 90.6%
- inhibition at 1 µM [8]: 72.3%
- inhibition at 1 µM [9]: 82.2%
- inhibition at 1 µM [10]: 79%
- inhibition at 1 µM [11]: 94.6%
- inhibition at 1 µM [12]: 92.9%
- inhibition at 1 µM [13]: 86.5%
- inhibition at 1 µM [14]: 99.6%
- IC50 [15]: 4.25 ± 0.06 nM
- inhibition at 1 µM [16]: 64.3%
- inhibition at 1 µM [17]: 87.2%
- inhibition at 1 µM [18]: 92.1%

SMILES: CO[C@H]1C(=O)[C@]2(C)[C@@H](OC(=O)N(C)C)C[C@H]3OC[C@@]3(OC(C)=O)[C@H]2[C@H](OC(=O)c2ccccc2)[C@]23OC(=O)O[C@H]2[C@H](OC(=O)[C@H](O)[C@@H](NC(=O)OC(C)(C)C)c2ccccn2)C(C)=C1C3(C)C [PCMI-15]
- inhibition at 1 µM [1]: 80.8%
- recovery [2, 19]: 79.3%
- Papp A→B [2, 20]: 2.14 ×10⁻⁶ cm/s
- recovery [2, 21]: 83.7%
- Papp A→B [2, 22]: 2.78 ×10⁻⁶ cm/s
- recovery [2, 23]: 74.8%
- inhibition at 1 µM [3]: 95.5%
- inhibition at 1 µM [4]: 88.7%
- inhibition at 1 µM [5]: 97.8%
- inhibition at 1 µM [6]: 97.9%
- inhibition at 1 µM [7]: 95%
- inhibition at 1 µM [8]: 74.6%
- inhibition at 1 µM [9]: 86%
- inhibition at 1 µM [10]: 82%
- inhibition at 1 µM [11]: 95.7%
- inhibition at 1 µM [12]: 95.7%
- inhibition at 1 µM [13]: 86.7%
- inhibition at 1 µM [14]: 101%
- IC50 [15]: 18.2 ± 0.24 nM
- inhibition at 1 µM [16]: 68.3%
- inhibition at 1 µM [17]: 90.8%
- inhibition at 1 µM [18]: 93.2%

SMILES: CO[C@H]1C(=O)[C@]2(C)[C@@H](OC)C[C@H]3OC[C@@]3(OC(C)=O)[C@H]2[C@H](OC(=O)c2ccccc2)[C@]23OC(=O)O[C@H]2[C@H](OC(=O)[C@H](O)[C@@H](NC(=O)c2ccccc2)c2ccccc2)C(C)=C1C3(C)C [PCMI-02]
- inhibition at 1 µM [1]: 84.1%
- recovery [2, 19]: 50.8%
- Papp A→B [2, 20]: 1.5 ×10⁻⁶ cm/s
- recovery [2, 21]: 44.1%
- Papp A→B [2, 22]: 1.47 ×10⁻⁶ cm/s
- recovery [2, 23]: 57.4%
- inhibition at 1 µM [3]: 93.5%
- inhibition at 1 µM [4]: 89%
- inhibition at 1 µM [5]: 95.9%
- inhibition at 1 µM [6]: 89.8%
- inhibition at 1 µM [7]: 94.2%
- inhibition at 1 µM [8]: 79.6%
- inhibition at 1 µM [9]: 82.2%
- inhibition at 1 µM [10]: 82.6%
- inhibition at 1 µM [11]: 94.7%
- inhibition at 1 µM [12]: 96.6%
- inhibition at 1 µM [13]: 83.7%
- inhibition at 1 µM [14]: 98.2%
- IC50 [15]: 6.93 ± 0.12 nM
- inhibition at 1 µM [16]: 66.4%
- inhibition at 1 µM [17]: 84.7%
- inhibition at 1 µM [18]: 94.7%

SMILES: COC(=O)O[C@H]1C(=O)[C@]2(C)[C@@H](OC)C[C@H]3OC[C@@]3(OC(C)=O)[C@H]2[C@H](OC(=O)c2ccccc2)[C@]23OC(=O)O[C@H]2[C@H](OC(=O)[C@H](O)[C@@H](NC(=O)OC(C)(C)C)c2ccccc2)C(C)=C1C3(C)C [PCMI-12]
- inhibition at 1 µM [1]: 75.9%
- Papp A→B ([2]; Mean, read-out: Papp A-B, Mean): < 1.43 ×10⁻⁶ cm/s
- recovery [2, 19]: 27.8 to 39.5%
- Papp A→B [2, 20]: < 1.36 ×10⁻⁶ cm/s
- recovery [2, 21]: 27.8 to 29.1%
- Papp A→B [2, 22]: < 1.43 ×10⁻⁶ cm/s
- recovery [2, 23]: 38.2 to 39.5%
- inhibition at 1 µM [3]: 81.8%
- inhibition at 1 µM [4]: 85.4%
- inhibition at 1 µM [5]: 97.2%
- inhibition at 1 µM [6]: 92%
- inhibition at 1 µM [7]: 93%
- inhibition at 1 µM [8]: 73.6%
- inhibition at 1 µM [9]: 82.3%
- inhibition at 1 µM [10]: 81.4%
- inhibition at 1 µM [11]: 94.3%
- inhibition at 1 µM [12]: 93.4%
- inhibition at 1 µM [13]: 86.3%
- inhibition at 1 µM [14]: 100%
- IC50 [15]: 3.24 ± 0.04 nM
- inhibition at 1 µM [16]: 66.6%
- inhibition at 1 µM [17]: 86.7%
- inhibition at 1 µM [18]: 91.2%
